# Experimental data: US7410949B2, “Neuropeptide-2 receptor (Y-2R) agonists and uses thereof” (Hoffmann-La Roche Inc., priority 2005, dated 2008)
# *1 amine or outer side, *2 acyl side, *3 side chain or, on linkers, in order; H or OH if unused. Where a SMILES comes first, the peptide text is derived from it. Bridges are numbered along the chain shown (N, C = ends). [ ]: non-standard residue; d: D form. X1 = O=C(COc1ccc2[nH]cc(CCN[*:1])c2c1)[*:2]; Nle = CCCC[C@H](N)C(=O)O
# Assays:
# [1] = test system: hypothalamic slices; conditions: hypothalamic slices in vitro; cited from earlier work
# [2] = biological target: T1, Y1R (Homo sapiens, UniProt P25929); experiment: FLIPR assay, Y1R; format: cell-based
# T1 sequence (P25929 1-384): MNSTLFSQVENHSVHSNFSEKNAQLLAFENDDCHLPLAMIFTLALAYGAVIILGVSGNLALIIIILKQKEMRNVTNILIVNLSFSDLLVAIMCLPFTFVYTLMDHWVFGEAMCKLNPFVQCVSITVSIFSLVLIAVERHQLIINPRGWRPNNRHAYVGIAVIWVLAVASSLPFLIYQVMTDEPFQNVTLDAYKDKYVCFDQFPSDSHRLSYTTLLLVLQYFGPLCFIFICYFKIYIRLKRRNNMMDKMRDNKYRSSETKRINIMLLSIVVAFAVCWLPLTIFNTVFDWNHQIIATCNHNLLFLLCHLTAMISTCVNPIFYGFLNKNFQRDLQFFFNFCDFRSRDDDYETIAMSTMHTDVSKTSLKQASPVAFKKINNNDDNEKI
# Experimental: (§1) Loading Buffer (Calcium-3 Assay Kit, Molecular Devices) was prepared by dissolving the contents of one vial (Express Kit) into 1000 ml Hank's Balanced Salt Solution containing 20 mM HEPES and 5 mM probenecid. Aliquots of 25 μL of diluted dye was dispensed into the cell plates and the plates are then incubated for 1 hour at 37° C.
# (§2) During the incubation, test compounds were prepared at 3.5× the desired concentration in HBSS (20 mM HEPES)/0.05% BSA/1% DMSO and transferred to a 384 well plate for use on FLIPR.
# (§3) After incubation, both the cell and compound plates were brought to the FLIPR and 20 μL of the diluted compounds were transferred to the cell plates by the FLIPR. During the assay, fluorescence readings were taken simultaneously from all 384 wells of the cell plate every 1.5 seconds. Five readings were taken to establish a stable baseline, and then 20 μL of sample was rapidly (30 μL/sec) and simultaneously added to each well of the cell plate. The fluorescence was continuously monitored before, during and after sample addition for a total elapsed time of 100 seconds. Responses (increase in peak fluorescence) in each well following addition was determined. The initial fluorescence reading from each well, prior to ligand stimulation, was used as a zero baseline value for the data from that well. The responses are expressed as % of maximal response of the positive control.
# [3] = biological target: Y4R (Homo sapiens, UniProt P50391); experiment: FLIPR assay, Y4R; format: cell-based
# Sequence of Y4R (P50391 whole entry): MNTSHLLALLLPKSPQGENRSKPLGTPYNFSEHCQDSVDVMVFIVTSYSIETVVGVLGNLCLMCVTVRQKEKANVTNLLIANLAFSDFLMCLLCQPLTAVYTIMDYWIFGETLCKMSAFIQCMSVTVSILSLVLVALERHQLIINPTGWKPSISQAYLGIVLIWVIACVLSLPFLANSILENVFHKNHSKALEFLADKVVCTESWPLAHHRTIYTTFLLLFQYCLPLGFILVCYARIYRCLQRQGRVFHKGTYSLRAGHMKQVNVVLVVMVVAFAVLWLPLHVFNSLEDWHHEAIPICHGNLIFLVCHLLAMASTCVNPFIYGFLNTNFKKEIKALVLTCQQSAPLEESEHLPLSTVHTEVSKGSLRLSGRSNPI
# Experimental: as §1, §2, §3
# [4] = test system: C57BL/6J male mice or DIO (diet-induced obese) male mice; experiment: In Vivo Reduction of Food Intake Assay; design: species or system mouse
# Experimental: In this Example, compounds of Examples 5, 44, 73 and 74 were administered to four sets of mice in four separate experiments to measure effect on food intake. C57BL/6J male mice or DIO (diet-induced obese) male mice were used in the experiments, with eight mice per experimental group. The mice were maintained on a regular light cycle (6 AM—ON; 6 PM—OFF). The mice were fasted for 24 hours prior to testing with ad lib access to water. During the test, mice were housed one per cage.
# The compounds of Examples 5 and 44 were administered intraperitoneally; and the compounds of Examples 73 and 74 were administered subcutaneously. In each Figure, cumulative and time interval food consumptions were measured in individual mice. Mean food consumption and percent change from vehicle were calculated for each time interval. Data was analyzed by using two-tailed Student t-test.
# [5] = administered intraperitoneally, mice fasted 24 hours, 1, 2, 4, 6 and 24 hours after dosing
# [6] = administered subcutaneously, mice fasted 24 hours, 1, 2, 4, 6, 24 hours and longer intervals
Molecule,"reduction of food intake [4, 5]","reduction of food intake [4, 6]",other results
N=C(N)NCCC[C@H](NC(=O)CC1(CC(=O)N2CCN(C3c4ccccc4NC(=O)c4ccccc43)CC2)CCCC1)C(=O)NCCn1c(=O)n(-c2ccccc2)n(-c2ccccc2)c1=O (stereo partly shown) [BIIE0246],–,–,NPY release [1]: increases NPY release
CCCC[C@H](NC(=O)[C@@H](NC(C)=O)[C@@H](C)CC)C(=O)NCCc1c[nH]c2ccc(OCC(=O)N[C@@H](CCCNC(=N)N)C(=O)N[C@@H](Cc3c[nH]cn3)C(=O)N[C@@H](Cc3ccc(O)cc3)C(=O)N[C@H]3CCCCNC(=O)C[C@@H](C(=O)N[C@@H](CCCNC(=N)N)C(=O)N[C@@H](CCC(N)=O)C(=O)N[C@@H](CCCNC(=N)N)C(=O)N[C@@H](Cc4ccc(O)cc4)C(N)=O)NC(=O)[C@H](C(C)C)NC(=O)[C@H](CC(C)C)NC(=O)[C@H](CC(N)=O)NC3=O)cc12 [Example 53] (Ac-I[Nle][X1]RHYKNLVDRQRY-NH2; lactam 7-11),–,–,EC50 [2]: > 5 µM; EC50 [3]: > 5 µM
Ac-Ile-Nle-Pqa-Arg-His-Tyr-Leu-Asn-Leu-Val-Thr-Arg-Gln-Arg-Tyr-NH2 [Example 44],reduction of food intake was demonstrated,–,–
H-Ile-Lys-Pqa-Arg-His-Tyr-Leu-Asn-Leu-Val-Thr-Arg-Gln-Arg-Tyr-NH2 [Example 5],reduction of food intake was demonstrated,–,–
"PEG (10,000)-Ile-Nle-Pqa-Arg-His-Tyr-Leu-Asn-Leu-Val-Thr-Arg-Gln-Arg-Tyr-NH2 [Example 73]",–,reduction of food intake was demonstrated,–
"PEG (30,000)-Ile-Nle-Pqa-Arg-His-Tyr-Leu-Asn-Leu-Val-Thr-Arg-Gln-Arg-Tyr-NH2 [Example 74]",–,reduction of food intake was demonstrated,–
